Source: PubChem BioAssay (NCI)
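Five compound concentrations were applied to cells in 96-well plates for 48 hours; endpoints were derived by simple linear interpolation of the resulting dose-response curve. GI50: concentration for 50% inhibition of growth. TGI: total growth inhibition.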

Tests used:
Assay in all cases: growth of human tumour cells (NCI), 48 h
NCI-H522 lung = system: NCI-H522 lung
DMS 273 small cell lung = system: DMS 273 small cell lung
SNB-19 CNS = system: SNB-19 CNS
DLD-1 colon = system: DLD-1 colon
SK-MEL-5 melanoma = system: SK-MEL-5 melanoma
HOP-92 NSCLC = system: HOP-92 NSCLC
HOP-62 NSCLC = system: HOP-62 NSCLC
NCI-H226 lung = system: NCI-H226 lung
MDA-MB-231 breast = system: MDA-MB-231 breast
MCF7 breast = system: MCF7 breast

| Structure (SMILES) | TGI (NCI-H522 lung) [µM] | TGI (DMS 273 small cell lung) [µM] | TGI (SNB-19 CNS) [µM] | TGI (DLD-1 colon) [µM] | TGI (SK-MEL-5 melanoma) [µM] | TGI (HOP-92 NSCLC) [µM] | TGI (HOP-62 NSCLC) [µM] | TGI (NCI-H226 lung) [µM] | TGI (MDA-MB-231 breast) [µM] | TGI (MCF7 breast) [µM] | GI50 (NCI-H226 lung) [µM] | GI50 (NCI-H522 lung) [µM] | GI50 (HOP-62 NSCLC) [µM] | GI50 (MDA-MB-231 breast) [µM] | GI50 (MCF7 breast) [µM] | GI50 (SNB-19 CNS) [µM] | GI50 (SK-MEL-5 melanoma) [µM] | GI50 (HOP-92 NSCLC) [µM] |
| --- | --- | --- | --- | --- | --- | --- | --- | --- | --- | --- | --- | --- | --- | --- | --- | --- | --- | --- |
| Nc1ccc(C(=O)N/C(=C\c2ccc3c(c2)OCO3)c2nc3ccccc3s2)cc1 | 28.5 | 34.2 | 28.7 | 59.7 | 29.2 | 24.7 |  |  |  |  |  |  |  |  |  |  |  |  |
| COC(OC)c1cccnc1C | > 100 | > 100 | > 100 | > 100 | > 100 | > 100 | > 100 |  |  |  |  |  |  |  |  |  |  |  |
| Nc1ccccc1SC(/C=C/NNC1=NC(c2ccccc2)C(c2ccccc2)=NN1)c1ccccc1 (centres undefined) | 14.5 | 36.8 | 43.8 | 31.8 | 26.8 | 22.1 | 34.3 | 30.4 |  |  |  |  |  |  |  |  |  |  |
| BrCc1ccc2ccc3ccc(CBr)nc3c2n1 |  | 3.34 | 19.5 |  | 8.16 | 4.04 | 21 | 15 | 6.86 | 4.87 |  |  |  |  |  |  |  |  |
| COC(=O)CCC(NC(=S)N/N=C(\C)c1cccs1)C(=O)OC (centres undefined) | > 100 | > 100 | > 100 | > 100 | > 100 | > 100 | > 100 | > 100 |  |  |  |  |  |  |  |  |  |  |
| O=C1C=C(NCCc2ccccc2)c2ccccc2C1=O | 4.41 | 7.55 | 9.29 | 21.9 | 2.31 | 29.5 | 4.89 | 4.61 | 42.8 | 3.34 |  |  |  |  |  |  |  |  |
| CCOC(=O)NN1C(=O)C(=P(c2ccccc2)(c2ccccc2)c2ccccc2)C(C(=O)OC)=C1C | > 100 | > 100 | > 100 | > 100 | > 100 | > 100 | > 100 | > 100 |  |  |  |  |  |  |  |  |  |  |
| Cc1cccc(C=NC23CC4CC(CC(C4)C2)C3)c1 | > 100 | > 100 | > 100 | > 100 | > 100 | > 100 | > 100 | > 100 |  |  |  |  |  |  |  |  |  |  |
| C/C(=N/NC(N)=S)C(CN1CCOCC1)C(C1=C(O)c2ccccc2OC1)c1ccccc1 (centres undefined) | > 100 |  | > 100 | > 100 | > 100 | > 100 |  | > 100 |  |  |  |  |  |  |  |  |  |  |
| CCNC(=O)COc1ccc(Cl)c(C)c1 | > 100 | > 100 | > 100 | > 100 | > 100 | > 100 | > 100 | > 100 |  |  |  |  |  |  |  |  |  |  |
| O=C1C(=O)N(c2cc(Cl)ccc2Cl)C(=O)C(=O)C1c1nc2ccccc2s1 | > 100 | > 100 | > 100 | > 100 | > 100 | > 100 | > 100 | > 100 |  |  |  |  |  |  |  |  |  |  |
| CN(C)C(=S)/N=c1\ssc(=Nc2ccccc2)n1-c1ccccc1 | 34 | 48.5 |  | > 100 |  | 46 | 75.5 | 26.7 |  |  |  |  |  |  |  |  |  |  |
| CCCCC[C@H]1C/C=C2/C(=O)C=C[C@@H]2C/C=C\CCCC(=O)O1 | 0.236 |  | 7.45 |  | 0.168 | 2.18 | 0.341 | 0.18 | 6.39 | 5.44 | 0.0904 | 0.0936 | 0.129 | 0.212 | 0.0884 | 0.479 | 0.0844 | 0.577 |
| COc1ccc(C(=O)c2ccccc2)c(O)c1 | > 100 |  | > 100 |  | > 100 | > 100 | > 100 | > 100 | > 100 | > 100 | > 100 | 89.9 | > 100 | > 100 | > 100 | > 100 | 37.9 | 78.5 |
| COc1ccc(C(=O)Cn2c(C(=O)c3ccc(Cl)cc3)nc(-c3ccccc3)c2-c2ccccc2)cc1 | > 100 |  | > 100 |  | > 100 | 83.1 | > 100 | > 100 | > 100 | > 100 | > 100 | > 100 | > 100 | 44 | > 100 | 78.3 | > 100 | 7.43 |
